The values below come from paper PMC9920749, “In Vitro and In Silico Studies of Neolignans from Magnolia grandiflora L. Seeds against Human Cannabinoids and Opioid Receptors” (Molecules, 2023).

By Ki is commonly meant a dissociation constant, usually derived from enzyme kinetics or from competition with a known ligand. One may read the IC50 as the concentration that gives 50% inhibition.

The target in test [1] is CB1R. The following applies: data from the original publication; read-out: CB1R Agonist Ki; cited from earlier work.
In test [2] the target is CB2R. The following applies: cited from earlier work.
Test [3] has as its target T1, CB1R (Homo sapiens, UniProt P21554).
T1 construct: expressed in transfected cells; host or cells: HEK293 (ATCC), stably transfected; membrane preparation
Briefly: Competitive radioligand binding assay, [3H]-CP55,940, HEK293 membranes. The following applies: for Cannabinoid Receptors (% Displacement) CB1: 10 μM purified compounds and 2 + 3; for IC50: concentration for 50% displacement of 3H-labeled ligand; for Ki: read-out: CB1R Ki ± SEM. How it is done:
(§1) HEK293 cells stably transfected with δ, κ, and μ opioid subtypes were a generous gift from Roth Laboratories (University of North Carolina at Chapel Hill, NC, USA). Opioid cells were maintained as previously described. Membranes were made by washing the cells with cold PBS. The cells were then scraped in cold 50 mM Tris-HCl, pH 7.4 buffer. The solution was centrifuged at 5200× g for 10 min at 4 °C. Next, the supernatant was discarded, and the pellet was washed with more Tris-HCl buffer, homogenized via Sonic Dismembrator (Fisher Scientific, Pittsburgh, PA, USA) and then centrifuged at 24,000× g for 40 min at 4 °C. Finally, the pellet was re-suspended in cold 50 mM Tris-HCl buffer, aliquoted into 2 mL vials, and stored at −80 °C. The total membrane protein concentration was measured using a Pierce BCA Protein Assay Kit (Thermo Scientific, Rockford, IL, USA) as per the manufacturer’s protocol.
(§2) Cannabinoid and opioid competitive radioligand binding assays were performed as previously described. Saturation experiments were performed for all the receptors to determine receptor concentration and radioligand dissociation constant (Kd) for the membrane. Percent displacements were evaluated for all the cannabinoid and opioid subtypes with a triplicate of a fixed concentration (10 µg/mL for extracts and fractions, 10 μM for purified compounds). […] Control/test compounds were dissolved in DMSO at 10 μg/mL for extracts and fractions and 10 μM for purified compounds. […] The competitive binding assays were performed using 12 serial dilutions of each compound ranging from 0.002–300 μM (control compounds were serially diluted from 10 μM to 0.06 nM). The cannabinoid assays were incubated for 90 min at 37 °C with gentle agitation. The opioid assays were incubated for 60 min at room temperature. Bound radioligand was collected on GF/C (cannabinoid) or GF/B plates (opioid), washed 10 times with ice-cold 50 mM Tris-HCl (pH 7.4)/0.1% BSA (cannabinoid) or ice-cold 50 mM Tris-HCl (pH 7.4) (opioid). Radiodetection was measured with 50 µL (cannabinoid) or 25 µL (opioid) MicroScint^TM-20 on a TopCount NXT HTS Microplate Scintillation Counter (PerkinElmer, Waltham, MA, USA). The IC50 and Ki values were calculated by a non-linear curve fit model using GraphPad Prizm 5.0 software (GraphPad Software Inc., San Diego, CA, USA). Each compound was tested in triplicate unless stated otherwise.
(§3) Percent displacement was calculated to represent the ability of the samples to displace the radioligand binding for a given cannabinoid or opioid receptor subtype.
(§4) % displacement was calculated as follows: 100− binding of compound−nonspecific binding/specific binding×100

Test [4] concerns the target T2, CB2R (Homo sapiens, UniProt P34972).
T2 construct: expressed in transfected cells; host or cells: HEK293 (ATCC), stably transfected; membrane preparation
The test is described as above. The following applies: for Cannabinoid Receptors (% Displacement) CB2: 10 μM purified compounds and 2 + 3. The method, then: as §2, §3, §4

Another test has as its target T3, δ opioid receptor (Homo sapiens, UniProt P41143).
T3 construct: host or cells: HEK293, stably transfected; membrane preparation
Briefly: Competitive radioligand binding assay, [3H]-enkephalin (DPDPE), HEK293 membranes. The settings on record: 10 μM purified compounds and 2 + 3. The method, then:
as §1, with “Finally, the pellet was re-suspended in cold 50 mM Tris-HCl buffer, aliquoted into 2 mL vials, and stored at −80 °C.” left out
(§5) Cannabinoid and opioid competitive radioligand binding assays were performed as previously described. […] Percent displacements were evaluated for all the cannabinoid and opioid subtypes with a triplicate of a fixed concentration (10 µg/mL for extracts and fractions, 10 μM for purified compounds). […] Radiodetection was measured with 50 µL (cannabinoid) or 25 µL (opioid) MicroScint^TM-20 on a TopCount NXT HTS Microplate Scintillation Counter (PerkinElmer, Waltham, MA, USA). The IC50 and Ki values were calculated by a non-linear curve fit model using GraphPad Prizm 5.0 software (GraphPad Software Inc., San Diego, CA, USA). […]

The target of the next test is T4, κ opioid receptor (Homo sapiens, UniProt P41145).
T4 construct: host or cells: HEK293, stably transfected; membrane preparation
T4 sequence (P41145 whole entry): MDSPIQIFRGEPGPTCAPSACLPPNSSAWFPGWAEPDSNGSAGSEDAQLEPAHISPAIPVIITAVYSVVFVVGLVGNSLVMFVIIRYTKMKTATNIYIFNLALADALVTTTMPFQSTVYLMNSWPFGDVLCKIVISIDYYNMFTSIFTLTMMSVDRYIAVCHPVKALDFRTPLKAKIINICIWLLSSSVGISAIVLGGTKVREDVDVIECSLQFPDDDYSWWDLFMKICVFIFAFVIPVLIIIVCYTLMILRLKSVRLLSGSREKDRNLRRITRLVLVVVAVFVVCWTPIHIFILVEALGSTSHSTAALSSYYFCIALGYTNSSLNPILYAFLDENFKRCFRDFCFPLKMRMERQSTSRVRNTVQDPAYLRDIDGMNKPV
Type of test: binding. The settings on record: 10 μM purified compounds and 2 + 3. The method, then: as §1, with “Finally, the pellet was re-suspended in cold 50 mM Tris-HCl buffer, aliquoted into 2 mL vials, and stored at −80 °C.” left out
as §5

In the next test the target is T5, µ opioid receptor (Homo sapiens, UniProt P35372).
T5 construct: host or cells: HEK293, stably transfected; membrane preparation
T5 sequence (P35372 whole entry): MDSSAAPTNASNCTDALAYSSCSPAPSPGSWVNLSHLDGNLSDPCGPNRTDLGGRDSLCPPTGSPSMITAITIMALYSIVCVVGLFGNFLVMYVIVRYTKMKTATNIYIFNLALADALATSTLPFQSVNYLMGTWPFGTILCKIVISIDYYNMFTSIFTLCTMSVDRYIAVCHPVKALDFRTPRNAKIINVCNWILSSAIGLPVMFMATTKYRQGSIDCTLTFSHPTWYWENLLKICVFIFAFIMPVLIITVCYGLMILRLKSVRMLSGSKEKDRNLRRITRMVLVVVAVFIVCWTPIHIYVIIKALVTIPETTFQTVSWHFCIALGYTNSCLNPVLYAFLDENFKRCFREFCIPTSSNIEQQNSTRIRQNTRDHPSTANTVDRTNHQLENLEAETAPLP
The test can be described thus: biochemical. Type of test: binding. The following applies: for Opioid Receptors (% Displacement) µ: 10 μM purified compounds and 2 + 3; for IC50: 2 and 3 run as a singlet; for µ Opioid Receptor Ki ± SEM / Ki: 2 and 3 run as a singlet (no S.E.M.); for Ki: read-out: µ Opioid Receptor Ki ± SEM. The method, then:
as §1, §2, §3, §4

In test [5] the test system is CB2R. Further details: method as in earlier work. The settings on record: ref 27 (Rempel et al. 2013); cited from earlier work.
Test [6] relates to CB2R. Further details: method as in Schuehly et al. (2011). The following applies: ref Schuehly et al. (2011); cited from earlier work.
The test system of the next test is CB1 receptor. Further details: method as in PMID 24204944. The following applies: forskolin-induced cAMP; cited from earlier work.
The subject of the next test is CB2 receptor. Further details: method as in PMID 24204944. The settings on record: forskolin-induced cAMP; cited from earlier work.
Where [7] appears, read: data from the original publication, read-out: CB2R Agonist Ki.
[8] abbreviates: concentration for 50% displacement of 3H-labeled ligand, read-out: CB2R IC50.

Where two headings read alike, the source gives them in different places.

T1 sequence (P21554 whole entry): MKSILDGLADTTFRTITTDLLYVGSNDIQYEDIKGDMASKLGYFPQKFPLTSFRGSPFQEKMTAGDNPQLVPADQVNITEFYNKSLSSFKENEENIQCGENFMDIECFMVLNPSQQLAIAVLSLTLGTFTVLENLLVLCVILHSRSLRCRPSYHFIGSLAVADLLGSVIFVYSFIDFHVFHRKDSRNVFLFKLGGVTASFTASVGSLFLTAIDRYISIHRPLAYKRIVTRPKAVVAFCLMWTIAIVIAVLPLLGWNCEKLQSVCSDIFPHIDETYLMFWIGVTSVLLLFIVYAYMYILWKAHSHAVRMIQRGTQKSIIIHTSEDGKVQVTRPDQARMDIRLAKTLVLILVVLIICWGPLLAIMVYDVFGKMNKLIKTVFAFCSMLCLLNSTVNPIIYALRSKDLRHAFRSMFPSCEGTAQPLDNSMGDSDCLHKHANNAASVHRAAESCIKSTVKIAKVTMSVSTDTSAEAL
T2 sequence (P34972 whole entry): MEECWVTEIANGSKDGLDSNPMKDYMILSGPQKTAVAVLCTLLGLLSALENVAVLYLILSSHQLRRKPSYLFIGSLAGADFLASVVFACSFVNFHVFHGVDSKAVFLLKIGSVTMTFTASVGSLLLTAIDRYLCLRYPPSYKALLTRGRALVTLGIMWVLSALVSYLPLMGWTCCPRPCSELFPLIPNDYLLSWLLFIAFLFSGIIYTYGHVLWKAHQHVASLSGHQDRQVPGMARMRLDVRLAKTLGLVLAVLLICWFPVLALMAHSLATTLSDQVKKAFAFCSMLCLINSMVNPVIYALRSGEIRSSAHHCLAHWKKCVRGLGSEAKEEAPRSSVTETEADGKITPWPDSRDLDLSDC
T3 sequence (P41143 whole entry): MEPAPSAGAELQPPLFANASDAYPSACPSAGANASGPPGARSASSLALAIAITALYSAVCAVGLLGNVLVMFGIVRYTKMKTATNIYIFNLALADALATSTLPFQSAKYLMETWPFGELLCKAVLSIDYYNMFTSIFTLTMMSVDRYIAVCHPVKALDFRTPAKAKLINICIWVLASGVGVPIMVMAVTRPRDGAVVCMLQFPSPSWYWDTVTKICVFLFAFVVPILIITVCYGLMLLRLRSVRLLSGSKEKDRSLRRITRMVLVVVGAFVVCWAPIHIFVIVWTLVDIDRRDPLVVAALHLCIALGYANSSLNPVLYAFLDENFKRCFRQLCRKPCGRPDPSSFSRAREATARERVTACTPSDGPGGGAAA

`CCCc1ccc(O)c(-c2cc(CCC)ccc2OC)c1` [Compound 4a, methoxytetrahydromagnolol]: the results for the Ki at CB1R [1] and at CB2R [2] (setting [7]) were 267 ± 58 nM and 221 ± 57 nM, respectively.
`CCCCCCc1ccc(OC)c(-c2cc(CCC)ccc2O)c1` [Compound 6b]: the Ki on CB1R [1] is 313 nM; on CB2R [2] (setting [7]), 281 ± 101 nM.
For the compound `C=CCc1ccc(O)c(-c2cc(CC=C)ccc2O)c1` [Compound 2, magnolol], at CB1R [3], the “Cannabinoid Receptors (% Displacement) CB1” value was determined as 52.7%. Besides, the IC50 at CB1R [3] was 35.6 µM; on CB2R [4] (setting [8]) it was 2890 nM; at µ opioid receptor, 106 µM. Further, the Ki on CB1R [3] is 17.8 ± 3.43 µM; at CB2R [4] (read-out: CB2R Ki ± SEM), 1400 ± 140 nM; at µ opioid receptor, 53.1 µM; on CB1R [1], 3150 nM; on CB2R [2] (setting [7]) it was 1440 nM. Besides, the “Cannabinoid Receptors (% Displacement) CB2” value at CB2R [4] was 74.7%. Further, the “Opioid Receptors (% Displacement) Δ” value at δ opioid receptor came to 7.3%. For the same compound, the “Opioid Receptors (% Displacement) κ” value at κ opioid receptor worked out at 10.7%. Also, the “Opioid Receptors (% Displacement) µ” value at µ opioid receptor was found to be 52.9%. Further, the “µ Opioid Receptor Ki ± SEM” value at µ opioid receptor is recorded as “low affinity”. For the same compound, the “functional character at CB2R” value with CB2R [5] is listed as “partial CB2R agonists”.
Consider `CCCCCCC(C)(C)c1ccc([C@@H]2C[C@H](O)CC[C@H]2CCCO)c(O)c1` [CP55,940, reference compound], for which the “Cannabinoid Receptors (% Displacement) CB2” value on CB2R [4] turned out to be 101.3%.
Consider `CCCc1ccc(O)c(-c2cc(CCC)ccc2O)c1` [Compound 4, tetrahydromagnolol], for which the “Cannabinoid Receptors (% Displacement) CB1” value at CB1R [3] stood at 30.8%. The figures for the IC50 at CB1R [3] and at CB2R [4] (setting [8]) were 38.2 µM and 1990 nM, respectively. Moreover, the Ki is 19.1 ± 0.79 µM on CB1R [3]; 990 ± 140 nM on CB2R [4] (read-out: CB2R Ki ± SEM); 2260 nM at CB1R [1]; 416 nM on CB2R [2] (setting [7]); 410 nM at CB2R [2] (ref 27 (Rempel et al. 2013), read-out: CB2R Ki). In addition, the “Cannabinoid Receptors (% Displacement) CB2” value at CB2R [4] is reported as 78.2%. The “functional character at CB2R” value in the test on CB2R [5] is given as “partial CB2R agonists”.
Turning to `CCCCCCc1ccc(O)c(-c2cc(CCC)ccc2O)c1` [Compound 6], the results for the Ki at CB1R [1] and at CB2R [2] (setting [7]) were 145 ± 48 nM and 29.4 ± 9 nM, respectively.
For `C=CCc1ccc(O)c(-c2ccc(O)c(CC=C)c2)c1` [Compound 3, honokiol], the “Cannabinoid Receptors (% Displacement) CB1” value on CB1R [3] stood at 50.8%. Moreover, the IC50 at CB1R [3] is 29.1 µM; at CB2R [4] (setting [8]), 3880 nM; on µ opioid receptor it was 91.1 µM. Further, the Ki on CB1R [3] was 14.5 ± 2.47 µM; on CB2R [4] (read-out: CB2R Ki ± SEM), 1940 ± 160 nM; on µ opioid receptor it was 182 µM; at CB1R [1], 6460 nM; at CB2R [2] (setting [7]), 5610 nM. The “Cannabinoid Receptors (% Displacement) CB2” value at CB2R [4] is 65.7%. Moreover, the “Opioid Receptors (% Displacement) µ” value on µ opioid receptor is listed as 54.2%. For the same compound, on µ opioid receptor, the “µ Opioid Receptor Ki ± SEM” value was “low affinity”. In addition, the “functional character at CB2R” value in the test on CB2R [5] is on record as “CB2R antagonist or inverse agonist”.
Regarding `CCCCCc1ccc(O)c(-c2cc(CCC)ccc2OC)c1` [Compound 5a], the Ki is 17.3 ± 1.4 nM at CB1R [1] and 31 ± 9.9 nM on CB2R [2] (setting [7]).
For `CCCCCCc1ccc(O)c(-c2cc(CCC)ccc2OC)c1` [Compound 6a], the Ki at CB1R [1] was 9.57 ± 5.43 nM; on CB2R [2] (setting [7]), 23.8 ± 7.1 nM.
Take `C=CCc1ccc(O)c(-c2ccc(OC)c(CC=C)c2)c1` [Compound 1, 4-O-methylhonokiol]: on CB2R [4], the IC50 was 590 nM, the Ki was 290 ± 20 nM and the “Cannabinoid Receptors (% Displacement) CB2” value was determined as 82.2%. Moreover, the “Opioid Receptors (% Displacement) Δ” value at δ opioid receptor was determined as 31.4%. In addition, the “Opioid Receptors (% Displacement) κ” value on κ opioid receptor is recorded as 18.3%. Besides, the “Opioid Receptors (% Displacement) µ” value at µ opioid receptor is listed as 46.2%. Also, at CB2R [2] (setting [7]), the Ki is 43.3 ± 17.1 nM. In the test on CB2R [6], the “behavior at CB2R at Gi/o” value is listed as “inverse agonist” and the “behavior at CB2R regarding intracellular Ca2+ [Ca2+]i” value is given as “full agonist”. Further, the “functional activity at CB1 in cAMP accumulation” value in the test with CB1 receptor is “agonist”. Moreover, the “functional activity at CB2 in cAMP accumulation” value in the test with CB2 receptor is recorded as “agonist”.
In the case of `CCCCCc1ccc(O)c(-c2cc(CCC)ccc2O)c1` [Compound 5], the Ki on CB1R [1] is 362 ± 113 nM; on CB2R [2] (setting [7]), 37.5 ± 7.8 nM.
